From patent publication US20200397784A1 (priority 2019, published 2020)
Read-outs that look alike come from different tables or passages of the source. Marks after values point to notes of the source that are not given here.

Experiments:
[1] = system: influenza virus A/PR/8/34; test: Mouse influenza A model, Compound (1) with or without Oseltamivir, treatment +48 h; assay type: in vivo, Balb/c mice
[2] = system: influenza virus B/Mass/3/66; test: Mouse influenza B model, Compound (1) with or without Oseltamivir; assay type: in vivo, Balb/c mice
[3] = system: Influenza A/California/04/2009 (pndH1N1) virus; assay type: in vivo; details: pndH1N1 BALB/c mice
[4] = system: Influenza A/Victoria/3/75 (H3N2) virus; assay type: in vivo, BALB/c mice
[5] = system: Influenza A/Vietnam/1203/2004 (H5N1) virus; assay type: in vivo, BALB/c mice; details: treatment +48 h
influenza A virus = assay type: in vivo, mice
influenza A = test: Mouse influenza A model: lung viral titer; assay type: in vivo, mice; details: study day 6
Protocol: The effectiveness of Compound (1) to reduce lung viral titers was investigated. Mice were infected with influenza A and 24 h later vehicle, oseltamivir (10 mg/kg BID) or Compound (1) (3, 10, 30 mg/kg BID) was administered until lung harvest and viral burden determination on day 6 (Table 27).

A/Puerto Rico/8/34 [6] = system: A/Puerto Rico/8/34
influenza A/PR/8/34 = test: Mouse influenza A model, combination of Compound (1) with zanamivir; assay type: in vivo; details: A/PR/8/34 mice, no Compound (1)
Protocol: Infected mice were treated with vehicle or escalating dose levels of Form A of the Compound (1) HCl hemihydrate salt Form A (hereinafter in this example simply Compound (1)) in combination with zanamivir starting 24 hours prior to influenza A challenge with 5×10^3 TCID50 A/PR/8/34. The influenza A challenge and Compound (1) suspensions were prepared in a similar manner as described above in Example 8. The challenged mice were treated once IN (intranasal) with zanamivir at 0.3 mg/kg, 1 mg/kg or 3 mg/kg 24 hours prior to IN challenge with 5×10^3 TCID50 A/PR/8/34, and with Compound (1) at 0.1 mg/kg, 0.3 mg/kg, or 1 mg/kg BID for 10 days starting −2 hours prior to the challenge with 5×10^3 TCID50 A/PR/8/34.
Efficiency quotient, a composite measure of survival, bodyweight loss and lung function (% survival/(% body weight loss at Day 8)*(Penh at Day 6)) is summarized in Table 24B.

A/Puerto Rico/8/34 [7] = assay type: cell-based, influenza A virus
[8] = influenza A/PR/8/34 mice, Oseltamivir 10 mg/kg PO BID 10 days alone, from +48 h
[9] = influenza B/Mass/3/66 mice, Oseltamivir 10 mg/kg PO BID 10 days alone
[10] = Oseltamivir 10 mg/kg BID prophylaxis
[11] = 10 mg/kg twice a day for 10 days starting 2 hours prior to virus exposure
[12] = 10 mg/kg twice a day, prophylaxis
[13] = 10 mg/kg twice a day for 10 days
[14] = treatment start +24 h, 10 mg/kg BID
[15] = treatment start +48 h, 10 mg/kg BID
[16] = treatment start +72 h, 10 mg/kg BID

CCOC(=O)C1=C[C@@H](OC(CC)CC)[C@H](NC(C)=O)[C@@H](N)C1 [Oseltamivir, oseltamivir]
protection from death, BW loss, lung function ([1]; Oseltamivir 10 mg/kg alone, +48 hours post influenza A infection): did not protect from death
Penh (Day 3) [1, 8]: 2.36
Survival (21 days) [1, 8]: 0%
Weight Loss (Day 8) [1, 8]: 32.0%
protection from death, BW loss, lung function ([2]; Oseltamivir 10 mg/kg alone, 2 hours prior to influenza B infection): complete protection from death
Penh (Day 6/7) [2, 9]: 1.08
Survival (21 days) [2, 9]: 100%
Weight Loss (Day 8) [2, 9]: 12.8%
Mean Lung Parameters (Day 6): Virus Titer [3, 10]: 7.9 ± 0.2 Log10 CCID50/g
Mean Lung Parameters (Day 6): Weight [3, 10]: 178 ± 28 mg
Mean Lung Parameters (Day 6): Score ([3]; Oseltamivir 10 mg/kg BID prophylaxis, hemorrhage score 0-4): 1.0 ± 0.0^e
Survivors/Total ([3]; Oseltamivir 10 mg/kg twice a day for 10 days starting 2 hours prior to virus exposure): 10/10***
MDD ± SD (mean day of death of mice that died on or before day 21) [4, 11]: 7.0 days
Survivors/Total [4, 11]: 9/10***
Mean Lung Parameters (Day 6): Virus Titer [4, 12]: 7.0 ± 0.3 Log10 CCID50/g
Mean Lung Parameters (Day 6): Weight [4, 12]: 218 ± 24 mg
Mean Lung Parameters (Day 6): Score ([4]; 10 mg/kg twice a day, prophylaxis, lung hemorrhage score 0-4): 1.7 ± 1.1
MDD ± SD (mean day of death of mice that died on or before day 21) [5, 13]: 9.5 ± 1.2 days
Survivors/Total [5, 13]: 0/10
Mean Lung Parameters (Day 6): Virus Titer ([5]; 10 mg/kg twice a day): 5.22 ± 0.38 Log10 CCID50/g
survival (influenza A virus; mouse influenza A model, oseltamivir 10 mg/kg BID, same experiment): All of the oseltamivir-administered mice survived
protection with delayed dosing (influenza A virus; mouse, in vivo): only provided complete protection when dosing was initiated 24 h or less
survival (influenza A virus; mouse, in vivo): All of the oseltamivir-administered mice survived
Percent Survival (influenza A virus; mouse, in vivo, 10 mg/kg): 100%
Percent Body Weight Loss on Study Day 8 (influenza A virus; [14]): −28.9%
Percent Survival (influenza A virus; [14]): 100%
Percent Body Weight Loss on Study Day 8 (influenza A virus; [15]): −31.1%
Percent Survival (influenza A virus; [15]): 80%
Percent Body Weight Loss on Study Day 8 (influenza A virus; [16]): −31.3%
Percent Survival (influenza A virus; [16]): 0%
Percent Body Weight Loss on Study Day 8 (influenza A virus; treatment start −2 h, 10 mg/kg BID): −19.1%
Lung Viral Titer (influenza A; Study 1, 10 mg/kg BID from 24 h post infection for 5 days): 6.05 Log10 TCID50
Log10 Reduction vs. Vehicle (influenza A; Study 1, 10 mg/kg BID from 24 h post infection): −0.15 Log10
C.I. (combination index) (A/Puerto Rico/8/34 [6]): 0.58

CC(=O)N[C@H]1[C@H]([C@H](O)[C@H](O)CO)OC(C(=O)O)=C[C@@H]1N=C(N)N [Zanamivir, zanamivir]
Survival Rate (influenza A/PR/8/34; Zanamivir 0.3 mg/kg IN x 1, 24 h prior to infection): 37.5
Efficiency Quotient (% survival/(% body weight loss at Day 8)*(Penh at Day 6)) (influenza A/PR/8/34; Zanamivir 0.3 mg/kg IN x 1): 0.44
Survival Rate (influenza A/PR/8/34; Zanamivir 1 mg/kg IN x 1, 24 h prior to infection): 50
Efficiency Quotient (% survival/(% body weight loss at Day 8)*(Penh at Day 6)) (influenza A/PR/8/34; Zanamivir 1 mg/kg IN x 1): 0.73
Survival Rate (influenza A/PR/8/34; Zanamivir 3 mg/kg IN x 1, 24 h prior to infection): 62.5
Efficiency Quotient (% survival/(% body weight loss at Day 8)*(Penh at Day 6)) (influenza A/PR/8/34; Zanamivir 3 mg/kg IN x 1): 0.73
synergy volume (A/Puerto Rico/8/34 [7]): 268
C.I. (combination index) (A/Puerto Rico/8/34 [6]): 0.64

NC(=O)c1nc(F)c[nH]c1=O [favipiravir]
synergy volume (A/Puerto Rico/8/34 [7]): 317
C.I. (combination index) (A/Puerto Rico/8/34 [6]): 0.89

CCC(CC)O[C@@H]1C=C(C(=O)O)C[C@H](N)[C@H]1NC(C)=O [oseltamivir carboxylate]
synergy volume (A/Puerto Rico/8/34 [7]; in combination with Compound (1), Bliss independence method, […]): 312
